Assay results from publication PMC3563422 (Bioorganic & medicinal chemistry, 2012).

Experiments:
Assay type in all cases: biochemical
[1] = biological target: DENV2 NS2B/NS3pro (Dengue virus type 2, UniProt P14340); experiment: In vitro DENV2 NS2B/NS3pro protease inhibition assay; conditions: screened at 25 μM
[2] = biological target: T1, WNV NS2B/NS3pro (West Nile virus, UniProt Q9Q6P4); experiment: In vitro WNV NS2B/NS3pro protease inhibition assay; conditions: screened at 25 μM
[3] = biological target: Dengue virus protease (Dengue virus type 2, UniProt P14340); experiment: Kinetics analysis of DENV NS2B/NS3pro inhibition
[4] = biological target: T1, WNV NS2B/NS3pro; experiment: Kinetics analysis of WNV NS2B/NS3pro inhibition; conditions: for kcat of tetra-peptide substrate: 37 °C, WNV NS2B/NS3pro 28 nM

T1 sequence (Q9Q6P4 1506-1683): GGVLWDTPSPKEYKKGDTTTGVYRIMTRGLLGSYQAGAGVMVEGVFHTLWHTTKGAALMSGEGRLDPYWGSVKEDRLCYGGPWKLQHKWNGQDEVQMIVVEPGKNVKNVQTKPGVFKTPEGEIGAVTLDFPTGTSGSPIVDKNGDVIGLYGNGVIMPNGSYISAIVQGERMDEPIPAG
Dengue virus protease, sequence (P14340 1476-1653): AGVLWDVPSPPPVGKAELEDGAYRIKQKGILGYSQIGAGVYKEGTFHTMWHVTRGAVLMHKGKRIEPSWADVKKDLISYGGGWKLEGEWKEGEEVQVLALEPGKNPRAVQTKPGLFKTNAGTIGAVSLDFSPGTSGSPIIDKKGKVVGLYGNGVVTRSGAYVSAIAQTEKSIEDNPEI
DENV2 NS2B/NS3pro, sequence (P14340 1476-1653): as above

SMILES | activity against DENV NS2B/NS3pro (screen) [1] | activity against WNV NS2B/NS3pro (screen) [2] | Ki [3] [µM] | mode of inhibition of Dengue virus protease ([3]; from kinetics data) | Ki [4] [µM] | kcat of tetra-peptide substrate ([4]; [7n] = 1 μM) [s⁻¹] | kcat of tetra-peptide substrate ([4]; [7n] = 3 μM) [s⁻¹] | kcat of tetra-peptide substrate ([4]; [7n] = 5 μM) [s⁻¹] | mode of inhibition of West Nile virus protease ([4]; from kinetics data)
O=C(NCc1cn(CSc2ccccc2)nn1)Nc1ccc(C(=O)Nc2ccc(Oc3ccccc3)cc2)cc1 [Compound 7a] | inactive | inactive |  |  |  |  |  |  | 
O=C(NCc1cn(Cc2ccc(F)cc2)nn1)Nc1ccc(C(=O)Nc2ccc(Oc3ccccc3)cc2)cc1 [Compound 7n] |  |  | 8.77 | competitive | 5.55 | 0.059 ± 0.0014 | 0.062 ± 0.0018 | 0.055 ± 0.0020 | competitive
O=C(NCc1cn(Cc2ccccc2)nn1)Nc1cccc(C(=O)Nc2cccc(Oc3ccccc3)c2)c1 [Compound 8f] | inactive | inactive |  |  |  |  |  |  | 
